Experimental data reported in article PMC7795425, “Synthesis and Biological Activity of Brassinosteroid Analogues with a Nitrogen-Containing Side Chain” (International Journal of Molecular Sciences, 2020).
Entries after “also recorded” stand apart in the source; their conditions may differ.

Legend:
[1] = test system: Arabidopsis thaliana L. (Columbia ecotype, Col-0) seedlings; assay: Arabidopsis root sensitivity bioassay; assay type: in vivo; details: for root length, mean: 7-day-old seedlings; for elongation of roots (growth-promoting activity) compared to the control: low concentrations (0.1 and 1 nM); for inhibitory effect on Arabidopsis root growth: tested 0.1 to 10 nM, selected derivatives also 100 nM
Experimental: Several bioassays such as the first bean internode, root growth and rice lamina inclination have been developed to evaluate the growth-promoting activity of BR derivatives. In this work, the activity of new BR analogues was evaluated using the Arabidopsis root sensitivity test because of its simplicity and high sensitivity for BRs.. The characteristic effect of exogenously applied BRs on light-grown Arabidopsis is dose-dependent—BRs in higher concentrations cause inhibition of root growth; vice versa, low concentrations are stimulating. The results obtained for 24-epiBL, which was used as a positive control, and the BR derivatives are shown in Figure 2, Figure 3 and Figure S21. […] A similar trend was shown for dimethylammonium hydrochloride 22a and morpholinium hydrochloride 22e with a long side chain. For numerical values of the average, SD and p-value, see Table S2.
The biological activity of the new BRs derivatives was tested by an Arabidopsis sensitivity bioassay which was performed according to [28]. Briefly, seedlings of Arabidopsis thaliana L. (Columbia ecotype, Col-0) were stratified for 2 days at 4 °C and germinated on vertical half-strength Murashige and Skoog (1% w/v sucrose) agar at 22 °C in a 16 h/8 h light–dark cycle. The plates contained concentrations of 24-epiBL (as positive control) and BR derivatives ranging from 0.1 to 10 nM, respectively 100 nM (for selected derivatives only). After 7 days, roots were straightened on solid media plates and scanned with an Epson high-resolution scanner. The entire root length was measured with ImageJ (http://rsbweb.nih.gov/ij/). For each treatment, more than 15 seedlings were analyzed in two biological repeats, and p-values were calculated with the two-tailed Student t-test using Excel software.
Figure 2 Effect of selected brassinosteroid derivatives on the inhibition of Arabidopsis root length. Seven-day-old Arabidopsis thaliana seedlings (Columbia ecotype, Col-0) were treated with DMSO as control/24epiBL/BR short side chain derivatives; (A)—amides, (B)—amines, (C)—ammonium hydrochlorides. For each treatment, more than 15 seedlings were analyzed in two biological repeats. Error bars represent SD. Asterisks represent significant changes (t-test); * represents p-value < 0.05, in comparison to control.
Figure 3 Effect of selected brassinosteroid derivatives on the inhibition of Arabidopsis root length. Seven-day-old Arabidopsis thaliana seedlings (Columbia ecotype, Col-0) were treated with DMSO as control/24epiBL/BR long side chain derivatives; (A)—amides, (B)—ammonium hydrochlorides. For each treatment, more than 15 seedlings were analyzed in two biological repeats. Error bars represent SD. Asterisks represent significant changes (t-test); * represents p-value < 0.05, in comparison to control.
Table S2: Data for figure 2, 3, and S21. P value <0.05(t-test), comparison to control.
control (mean ± SD) 16.3 ± 1.21
*only selected compounds were tested
mean(mm) SD t-test mean (mm) SD t-test mean (mm) SD t-test mean (mm) SD t-test
(1 picture or pasted object on this page, not shown here)

[2] = Calcein AM cytotoxicity assay, CEM; assay type: cell-based; details: human, CEM T-lymphoblastic leukemia cells, IC50 > 50 µM means inactive, read-out: Cytotoxic activity IC50
Experimental: (§1) The effect of the prepared BRs derivatives on the viability (in Calcein AM assays) of BJ human fibroblasts (as an example of a “normal” cell line) and human cancer cell lines of various histopathological origins, including: T-lymphoblastic leukemia CEM, breast carcinoma MCF7 and cervical carcinoma cell line HeLa, was also studied. Cells of all these lines were exposed to six 3-fold dilutions of each drug for 72 h prior to determination of cell survival. The IC50 (concentration leading to 50% inhibition of viability) values obtained from the Calcein AM cytotoxicity assay were calculated. […] All tested BR nitrogen-containing derivatives had no detectable activity, even when tested in concentrations of up to 50 µM.
(§2) The screening cell lines: T-lymphoblastic leukemia CEM; breast carcinoma MCF7 (estrogen-sensitive); cervical carcinoma cell line HeLa; and human foreskin fibroblasts BJ, were obtained from the American Type Culture Collection (Manassas, VA, USA). Cells were cultured in DMEM (Dulbecco’s Modified Eagle Medium, Sigma, St. Louis, MO, USA). Media used were supplemented with 10% fetal bovine serum, 2mM L-glutamine and 1% penicillin–streptomycin. The cell lines were maintained under standard cell culture conditions at 37 °C and 5% CO2 in a humid environment.
(§3) Cells were subcultured twice or three times a week using the standard trypsinization procedure. Cytotoxicity in cancer cell lines after 72 h was determined as described earlier. Control cultures were treated with DMSO alone, and the final concentration of DMSO in the mixture never exceeded 0.6%. Six serial 3-fold dilutions of the test substances were added at time zero in 20 μL aliquots to the microtiter plate wells and the highest final concentration in the wells was 50 μM.
(§4) Table S3: Cytotoxic activities, IC50 (µM/L)a, of compounds in three tumor and one normal fibroblast
(§5) Compound CEM MCF7 HeLa BJ
(§6) a The lowest concentration that kills 50% of cells.
(§7) b Increase of cell proliferation.

[3] = Calcein AM cytotoxicity assay, MCF7; assay type: cell-based; details: human, MCF7 breast carcinoma cells (estrogen-sensitive), MCF7, 72 h, IC50 > 50 µM means inactive, read-out: Cytotoxic activity IC50
Experimental: as §1, §2, §3, §4, §5, §6, §7

[4] = Calcein AM cytotoxicity assay, HeLa; assay type: cell-based; details: human, HeLa cervical carcinoma cells, IC50 > 50 µM means inactive, read-out: Cytotoxic activity IC50
Experimental: as §1, §2, §3, §4, §5, §6, §7

[5] = Calcein AM cytotoxicity assay, BJ; assay type: cell-based; details: human, BJ foreskin fibroblasts (normal cell line), IC50 > 50 µM means inactive, read-out: Cytotoxic activity IC50
Experimental: as §1, §2, §3, §4, §5, §6, §7

[6] = 100 nM (only selected compounds), control 14.61 ± 0.85

C[C@H](CN1CCCCC1)[C@H]1CC[C@H]2[C@@H]3CC(=O)[C@H]4C[C@H](O)[C@H](O)C[C@]4(C)[C@H]3CC[C@]12C [15d, (20S)-20-(piperidin-1-ylmethyl)-2α,3α-dihydroxy-5α-pregnane-6-one]
root length, mean ([1]; 0.1 nM, control 16.3 ± 1.21): 14.18 mm | root length, mean ([1]; 1 nM, control 16.3 ± 1.21): 14.11 mm | root length, mean ([1]; 10 nM, control 16.3 ± 1.21): 15.15 mm | IC50 at 72 h [2]: > 50 µM | IC50 at 72 h [3]: > 50 µM | IC50 at 72 h [4]: > 50 µM | IC50 at 72 h [5]: > 50 µM | melting point: > 210 °C (dec.)

C[C@H](C(=O)N(C)C)[C@H]1CC[C@H]2[C@@H]3CC(=O)[C@H]4C[C@H](O)[C@H](O)C[C@]4(C)[C@H]3CC[C@]12C [8a, N,N-dimethyl-(20S)-2α,3α-dihydroxy-6-oxo-5α-pregnane-20-carboxamide]
root length, mean ([1]; 0.1 nM, control 16.3 ± 1.21): 16.12 mm | root length, mean ([1]; 1 nM, control 16.3 ± 1.21): 18.41 mm | root length, mean ([1]; 10 nM, control 16.3 ± 1.21): 16.46 mm | root length, mean [1, 6]: 13.329 mm | elongation of roots (growth-promoting activity) compared to the control [1]: slight elongation of roots; also recorded: interesting growth-promoting activity | inhibitory effect on Arabidopsis root growth [1]: weak inhibition up to the highest tested concentration of 100 nM | IC50 at 72 h [2]: > 50 µM | IC50 at 72 h [3]: > 50 µM | IC50 at 72 h [4]: > 50 µM | IC50 at 72 h [5]: > 50 µM | melting point: > 230 °C (dec.)

C[C@H](CN1CCOCC1)[C@H]1CC[C@H]2[C@@H]3CC(=O)[C@H]4C[C@H](O)[C@H](O)C[C@]4(C)[C@H]3CC[C@]12C [15e, (20S)-20-(morpholin-4-ylmethyl)-2α,3α-dihydroxy-5α-pregnane-6-one]
root length, mean ([1]; 0.1 nM, control 16.3 ± 1.21): 17.21 mm | root length, mean ([1]; 1 nM, control 16.3 ± 1.21): 17.61 mm | root length, mean ([1]; 10 nM, control 16.3 ± 1.21): 16.21 mm | root length, mean [1, 6]: 13.731 mm | IC50 at 72 h [2]: > 50 µM | IC50 at 72 h [3]: > 50 µM | IC50 at 72 h [4]: > 50 µM | IC50 at 72 h [5]: > 50 µM | melting point: > 210 °C (dec.)

C[C@H]([C@@H](O)[C@H](O)C(=O)N1CCOCC1)[C@H]1CC[C@H]2[C@@H]3CC(=O)[C@H]4C[C@H](O)[C@H](O)C[C@]4(C)[C@H]3CC[C@]12C [20e, 4-((20S,22R,23S)-2α,3α,22,23-tetrahydroxy-6-oxo-5α-cholan-24-oyl)morpholine]
root length, mean ([1]; 0.1 nM, control 16.3 ± 1.21): 17.44 mm | root length, mean ([1]; 1 nM, control 16.3 ± 1.21): 16.78 mm | root length, mean ([1]; 10 nM, control 16.3 ± 1.21): 15.97 mm | IC50 at 72 h [2]: > 50 µM | IC50 at 72 h [3]: > 50 µM | IC50 at 72 h [4]: > 50 µM | IC50 at 72 h [5]: > 50 µM | melting point: > 210 °C (dec.)

C[C@H]([C@@H](O)[C@@H](O)CN1CCOCC1)[C@H]1CC[C@H]2[C@@H]3CC(=O)[C@H]4C[C@H](O)[C@H](O)C[C@]4(C)[C@H]3CC[C@]12C.Cl [22e, 4-((20S,22R,23S)-2α,3α,22,23-tetrahydroxy-6-oxo-5α-cholan-24-yl)morpholinium chloride]
root length, mean ([1]; 0.1 nM, control 16.3 ± 1.21): 17.93 mm | root length, mean ([1]; 1 nM, control 16.3 ± 1.21): 17.27 mm | root length, mean ([1]; 10 nM, control 16.3 ± 1.21): 16.95 mm | elongation of roots (growth-promoting activity) compared to the control [1]: interesting growth-promoting activity | IC50 at 72 h [2]: > 50 µM | IC50 at 72 h [3]: > 50 µM | IC50 at 72 h [4]: > 50 µM | IC50 at 72 h [5]: > 50 µM | melting point: > 270 °C (dec.)

C[C@H]([C@@H](O)[C@H](O)C(=O)N(C)C)[C@H]1CC[C@H]2[C@@H]3CC(=O)[C@H]4C[C@H](O)[C@H](O)C[C@]4(C)[C@H]3CC[C@]12C [20a, N,N-dimethyl-(20S,22R,23S)-2α,3α,22,23-tetrahydroxy-6-oxo-5α-cholan-24-amide]
root length, mean ([1]; 0.1 nM, control 16.3 ± 1.21): 16.13 mm | root length, mean ([1]; 1 nM, control 16.3 ± 1.21): 14.67 mm | root length, mean ([1]; 10 nM, control 16.3 ± 1.21): 14.18 mm | root length, mean [1, 6]: 15.192 mm | inhibitory effect on Arabidopsis root growth [1]: weak inhibitory effect | IC50 at 72 h [2]: > 50 µM | IC50 at 72 h [3]: > 50 µM | IC50 at 72 h [4]: > 50 µM | IC50 at 72 h [5]: > 50 µM | melting point: > 210 °C (dec.)

CCN(CC)C(=O)[C@@H](O)[C@H](O)[C@@H](C)[C@H]1CC[C@H]2[C@@H]3CC(=O)[C@H]4C[C@H](O)[C@H](O)C[C@]4(C)[C@H]3CC[C@]12C [20b, N,N-diethyl-(20S,22R,23S)-2α,3α,22,23-tetrahydroxy-6-oxo-5α-cholan-24-amide]
root length, mean ([1]; 0.1 nM, control 16.3 ± 1.21): 16.78 mm | root length, mean ([1]; 1 nM, control 16.3 ± 1.21): 15.32 mm | root length, mean ([1]; 10 nM, control 16.3 ± 1.21): 14.99 mm | IC50 at 72 h [2]: > 50 µM | IC50 at 72 h [3]: > 50 µM | IC50 at 72 h [4]: > 50 µM | IC50 at 72 h [5]: > 50 µM | melting point: > 160 °C (dec.)

C[C@H]([C@@H](O)[C@@H](O)CN(C)C)[C@H]1CC[C@H]2[C@@H]3CC(=O)[C@H]4C[C@H](O)[C@H](O)C[C@]4(C)[C@H]3CC[C@]12C.Cl [22a, N,N-dimethyl-((20S,22R,23S)-2α,3α,22,23-tetrahydroxy-6-oxo-5α-cholan-24-yl)aminium chloride]
root length, mean ([1]; 0.1 nM, control 16.3 ± 1.21): 19.56 mm | root length, mean ([1]; 1 nM, control 16.3 ± 1.21): 18.17 mm | root length, mean ([1]; 10 nM, control 16.3 ± 1.21): 17.11 mm | root length, mean [1, 6]: 13.464 mm | elongation of roots (growth-promoting activity) compared to the control [1]: interesting growth-promoting activity | IC50 at 72 h [2]: > 50 µM | IC50 at 72 h [3]: > 50 µM | IC50 at 72 h [4]: > 50 µM | IC50 at 72 h [5]: > 50 µM | melting point: > 270 °C (dec.)
